We go through 11 molecules from US6265445A, “Antiarrhythmic compounds” (priority 1997, dated 2001).

Where a name gives a salt, the structure may show the parent alone. Read-outs that look alike come from different tables or passages of the source.

The subject of assay [1] is right ventricular papillary muscle of dogs. The experiment in a line: Intracellular microelectrode technique: action potential parameters, ventricular papillary muscle. Set-up: species or system mongrel dogs. Conditions: for Trecovery (recovery time constant of Vmax): Gy: kinetics of rapid restoration; for effect on duration of the action potential (in words) / effect on Vmax (in words): concentrations of Table 2; for effect on Vmax (in words): rapid recovery kinetics. As for the experimental part:
The method used is essentially in agreement with the method of Papp et al. [J. Cardiovascular Pharmacol. Ther. 1, 287-296 (1996)].
Right ventricular papillary muscle and Purkinje's fibres were prepared from the hearts of mongrel dogs (weighing 5 to 10 kg each). The preparations were placed into an organ bath (37° C.) containing modified Tyrode's nutrient medium. The preparations were excited by a basal frequency of 1 Hz. During the experiments, the frequency of stimulation was varied under broad limits by a computer-guided stimulator. The intracellular action potentials were registered by using glass capillary microelectrodes filled with 3 N potassium chloride solution (standard intracellular microelectrode techniques). The resting potential (RP), the amplitude of the action potential (APA) as well as the duration of the action potential (APD) were measured by using an IBM 386 compatible computer by means of an own-developed software. The compounds under test were directly added into the organ bath after dilution of the stock solutions according to the final concentrations desired. The effects of the compounds were observed after an incubation time of 30 to 40 minutes.

Assay [2] has as its system isolated right ventricular trabecule of dog heart. The experiment in a line: Extracellular electrophysiological measurements: impulse conduction time and effective refractory period. The note with it: for activation at 2 µM / activation at 10 µM: Canis lupus familiaris; for effect on effective refractory period (in words) / effect on impulse conduction (in words): concentrations of Table 1. Set-up: species or system mongrel dogs.
Procedure: Right ventricular trabecules were prepared from the heart of mongrel dogs (weighing 5 to 10 kg each). The surviving heart pieces were placed into an organ bath (37° C.) containing modified Tyrode's nutrient medium and excited by point stimulation with a basal frequency of 1 Hz. Extracellular bipolar platinum electrodes were placed on the surface of the preparations, by means of which the propagation of the superficial potentials were registered; thus, the determination of the time of impulse conduction or the rate of impulse conduction, respectively, and the effective refractory period (ERP) became possible. During our experiments,the frequency of stimulation was temporarily varied from 0.5 Hz up to 3 Hz. The tested compounds were directly added to the organ bath after dilution of the stock solution according to the desired final concentration.

[3] abbreviates: 1 Hz, read-out: Prolongation (%) of ERP.
The mark [4] stands for this setting: 1 Hz, read-out: Prolongation (%) of impulse conduction time.
Setting [5] is: 3 Hz, read-out: Prolongation (%) of ERP.
Setting [6] is: 3 Hz, read-out: Prolongation (%) of impulse conduction time.

Regarding `CN(CCOc1ccc(NS(C)(=O)=O)cc1)CCc1ccc(NS(C)(=O)=O)cc1` [Dofetilide, N-[4-[2-[N-methyl-N-[2-(4-methanesulfonamidophenoxy)ethyl]-amino]ethyl]phenyl]methanesulfonamide, reference compound], in assay [1] (1 μM), the “APA (amplitude of the action potential)” value is recorded as 96 mV, the “APD50 (time of 50% repolarization)” value is listed as 218 ms, the “APD90 (time of 90% repolarization)” value turned out to be 252 ms and the “RP (resting potential)” value was -76 mV. For the same molecule, the “Vmax (maximum rate of depolarization)” value in assay [1] (1 μM) is given as 212 V/s.

As for `Cc1cccc(C)c1OCC(C)N(C)CCc1ccc(N)cc1` (centres unmarked) [Example 9, N-[2-(2,6-Dimethylphenoxy)-1-methylethyl]-N-methyl-2-(4-aminophenyl)ethylamine], the activation at 2 µM in assay [2] (setting [3]) came to 31.8%. In addition, the activation at 2 µM in assay [2] (setting [4]) was determined as 38%. Besides, the activation at 2 µM in assay [2] (setting [5]) was found to be 39.4%. Also, the activation at 2 µM in assay [2] (setting [6]) was 51.3%. Moreover, in assay [2], the “effect on effective refractory period (in words)” value is “simultaneous prolongation of the effective refractory period (ERP)” and the “effect on impulse conduction (in words)” value is listed as “significantly prolonged the time of impulse conduction in a frequency-dependent manner”. For the same molecule, in assay [1] (1 μM), the “APA (amplitude of the action potential)” value is given as 110 mV, the “APD50 (time of 50% repolarization)” value was determined as 285 ms, the “APD90 (time of 90% repolarization)” value stood at 342 ms and the “RP (resting potential)” value is -91 mV. Besides, in assay [1] (1 μM), the “Recovery Ampl” value is reported as 132.4 V/s, the “Recovery Ampl/Plateau” value worked out at 0.61, the “Recovery Plateau” value was determined as 216.5 V/s and the “Vmax (maximum rate of depolarization)” value is 200 V/s. Further, in assay [1] (1 μM), the “Trecovery (recovery time constant of Vmax)” value (shortened to “Trecovery”) stood at 307.4 ms. Moreover, in assay [1], the “effect on duration of the action potential (in words)” value (“effect on duration” for short) is recorded as “simultaneous prolongation of duration of the action potential (APD)” and the “effect on Vmax (in words)” value is on record as “mexiletine-like inhibition of Vmax”.

As to `Cc1ccccc1OCCN(C)CCc1ccc(NS(C)(=O)=O)cc1.Cl` [Example 14, N-[4-[2-[N-Methyl-N-[2-(2-methylphenoxy)ethyl]amino]ethyl]-phenyl]methanesulfonamide hydrochloride], in assay [1] (5 μM), the “APA (amplitude of the action potential)” value was 114 mV, the “APD50 (time of 50% repolarization)” value is 214 ms, the “APD90 (time of 90% repolarization)” value was found to be 257 ms and the “RP (resting potential)” value is given as -90 mV. For the same molecule, in assay [1] (5 μM), the “Recovery Ampl” value is given as 58.7 V/s, the “Recovery Ampl/Plateau” value turned out to be 0.25, the “Recovery Plateau” value is 231.8 V/s and the “Vmax (maximum rate of depolarization)” value was determined as 232 V/s. In assay [1] (5 μM), the “Trecovery” value turned out to be 111.4 ms. In addition, in assay [1], the “effect on duration” value is reported as “simultaneous prolongation of duration of the action potential (APD)” and the “effect on Vmax (in words)” value is “mexiletine-like inhibition of Vmax”.

In the case of `Cc1cccc(C)c1OC[C@H](C)N(C)CCc1ccc(NS(C)(=O)=O)cc1` [Example 16, (S)-N-[4-[2-[N-Methyl-N-[2-(2,6-dimethylphenoxy)-1-methylethyl]amino]ethyl]pbenyl]methanesulfonamide hydrochloride], in assay [2] (setting [3]), the activation at 10 µM was 10.7%. The activation at 10 µM in assay [2] (setting [4]) stood at 26.9%. The activation at 10 µM in assay [2] (setting [5]) was determined as 14.3%. The activation at 10 µM in assay [2] (setting [6]) stood at 39.7%. In assay [2], the “effect on effective refractory period (in words)” value is reported as “simultaneous prolongation of the effective refractory period (ERP)” and the “effect on impulse conduction (in words)” value is listed as “significantly prolonged the time of impulse conduction in a frequency-dependent manner”. Besides, in assay [1] (5 μM), the “APA (amplitude of the action potential)” value turned out to be 105 mV, the “APD50 (time of 50% repolarization)” value is listed as 195 ms, the “APD90 (time of 90% repolarization)” value is reported as 244 ms and the “RP (resting potential)” value was -86 mV. Further, in assay [1] (5 μM), the “Recovery Ampl” value is 75.8 V/s, the “Recovery Ampl/Plateau” value is on record as 0.39, the “Recovery Plateau” value was determined as 196.4 V/s and the “Vmax (maximum rate of depolarization)” value is reported as 199 V/s. Besides, in assay [1] (5 μM), the “difference between the effects of Example 15 and its enantiomers (in words)” value is “No essential difference could be observed”; the “Trecovery” value is 249.5 ms. Further, in assay [1], the “effect on duration” value is reported as “simultaneous prolongation of duration of the action potential (APD)” and the “effect on Vmax (in words)” value is recorded as “mexiletine-like inhibition of Vmax”.

Take `Cc1ccccc1OCC(C)N(C)CCc1ccc(NS(C)(=O)=O)cc1` (centres unmarked) [Example 18, N-[4-[2-[N-Methyl-N-[2-(2-methylphenoxy)-1-methylethyl]-amino]ethyl]phenyl]methanesulfonamide hydrochloride]: the activation at 10 µM in assay [2] (setting [3]) is 9.9%; in assay [2] (setting [4]), 18.5%; in assay [2] (setting [5]) it was 14%; in assay [2] (setting [6]), 21.7%.

In the case of `Cc1ccc(C)c(OCC(C)N(C)CCc2ccc(NS(C)(=O)=O)cc2)c1` (centres unmarked) [Example 20, N-[4-[2-[N-Metbyl-N-[2-(2,5-dimethylphenoxy)-1-methylethyl]amino]ethyl]phenyl]methanesulfonamide hydrochloride], the activation at 10 µM in assay [2] (setting [3]) is 8.4%; in assay [2] (setting [4]) it was 20.3%; in assay [2] (setting [5]), 12.6%; in assay [2] (setting [6]), 24.5%.

On to `Cc1cccc(C)c1OCCCN(C)CCc1ccc(NS(C)(=O)=O)cc1` [Example 23, N-[4-[2-[N-Methyl-N-[3-(2,6-dimethylphenoxy)propyl]amino]-ethyl]phenyl]methanesulfonamide hydrochloride], for which the activation at 10 µM came out at 10.8% in assay [2] (setting [3]), 25% in assay [2] (setting [4]), 14.9% in assay [2] (setting [5]) and 25% in assay [2] (setting [6]).

As to `Cc1cccc(C)c1OCCCCN(C)CCc1ccc(NS(C)(=O)=O)cc1.Cl` [Example 24, N-[4-[2-[N-Methyl-N-[4-(2,6-dimethylphenoxy)butyl]amino]ethyl]phenyl]methanesulfonamide hydrochloride], the activation at 10 µM came to 13.8% in assay [2] (setting [3]), 69% in assay [2] (setting [4]), 18.4% in assay [2] (setting [5]) and 82.9% in assay [2] (setting [6]). The “effect on effective refractory period (in words)” value in assay [2] is “simultaneous prolongation of the effective refractory period (ERP)”. In addition, the “effect on impulse conduction (in words)” value in assay [2] is “significantly prolonged the time of impulse conduction in a frequency-dependent manner”.

In the case of `Cc1cccc(C)c1OCC(C)N(C)CCc1ccc(NC(=O)c2ccccc2)cc1` (centres unmarked) [Example 25, N-[4-[2-[N-Methyl-N-[2-(2,6-dimethylphenoxy)-1-methylethyl]amino]ethyl]phenyl]benzamide hydrochloride], the activation at 10 µM in assay [2] (setting [3]) is 11.7%; in assay [2] (setting [4]), 18.8%; in assay [2] (setting [5]) it was 17%; in assay [2] (setting [6]), 18.8%.

Turning to `CC(=O)Nc1ccc(CCN(C)C(C)COc2c(C)cccc2C)cc1` (centres unmarked) [Example 26, N-[4-[2-[N-Methyl-N-[2-(2,6-dimethylphenoxy)-1-methylethyl]amino]ethyl]phenyl]acetamide sesquihydrochloride monohydrate], in assay [1] (5 μM), the “APA (amplitude of the action potential)” value came out at 105 mV, the “APD50 (time of 50% repolarization)” value is recorded as 200 ms, the “APD90 (time of 90% repolarization)” value worked out at 250 ms and the “RP (resting potential)” value was -80 mV. In assay [1] (5 μM), the “Recovery Ampl” value is given as 120.9 V/s, the “Recovery Ampl/Plateau” value is recorded as 0.62, the “Recovery Plateau” value was 195.9 V/s and the “Vmax (maximum rate of depolarization)” value turned out to be 195 V/s. The “Trecovery” value in assay [1] (5 μM) was 199 ms. Moreover, in assay [1], the “effect on duration” value is listed as “simultaneous prolongation of duration of the action potential (APD)” and the “effect on Vmax (in words)” value is reported as “mexiletine-like inhibition of Vmax”.

`CNC(=S)Nc1ccc(CCN(C)C(C)COc2c(C)cccc2C)cc1` (centres unmarked) [Example 27, 1-Methyl-3-[4-[2-[N-methyl-N-[2-(2,6-dimethylphenoxy)-1-methylethyl]amino]ethyl]phenyl]thiourea sesquihydrochloride hemihydrate]: in assay [1] (5 μM), the “APA (amplitude of the action potential)” value worked out at 88 mV, the “APD50 (time of 50% repolarization)” value is 210 ms, the “APD90 (time of 90% repolarization)” value amounted to 250 ms and the “RP (resting potential)” value is -71 mV. Moreover, in assay [1] (5 μM), the “Recovery Ampl” value stood at 78 V/s, the “Recovery Ampl/Plateau” value was found to be 0.53, the “Recovery Plateau” value was determined as 147.9 V/s and the “Vmax (maximum rate of depolarization)” value is 117 V/s. For the same molecule, the “Trecovery” value in assay [1] (5 μM) turned out to be 161.8 ms. In addition, in assay [1], the “effect on duration” value is reported as “simultaneous prolongation of duration of the action potential (APD)” and the “effect on Vmax (in words)” value is “mexiletine-like inhibition of Vmax”.
